Residue numbers refer to the chain shown, from its start.
Key:
[1] = tested on: 3T3; experiment: Growth effect on 3T3 cells; assay type: cell-based; settings: 3T3 normal mouse fibroblast cell line
[2] = tested on: DU-145 cells; experiment: MTS growth assay in DU-145 cells; assay type: cell-based; settings: DU-145, lacks AR expression
[3] = tested on: SkBr3; experiment: Growth effect on SkBr3 cells; assay type: cell-based; settings: SkBr3 breast cancer cells
[4] = tested on: MCF7; experiment: Growth effect on MCF7 cells; assay type: cell-based; settings: MCF7 breast cancer cells
[5] = target: T1, glucocorticoid receptor (GR) (Homo sapiens, UniProt P04150); experiment: GR response reporter in LNCaP cells over expressing glucocorticoid receptor; assay type: cell-based
T1 construct: expressed in transfected cells; host or cells: LNCaP cells
T1 sequence (P04150 1-777): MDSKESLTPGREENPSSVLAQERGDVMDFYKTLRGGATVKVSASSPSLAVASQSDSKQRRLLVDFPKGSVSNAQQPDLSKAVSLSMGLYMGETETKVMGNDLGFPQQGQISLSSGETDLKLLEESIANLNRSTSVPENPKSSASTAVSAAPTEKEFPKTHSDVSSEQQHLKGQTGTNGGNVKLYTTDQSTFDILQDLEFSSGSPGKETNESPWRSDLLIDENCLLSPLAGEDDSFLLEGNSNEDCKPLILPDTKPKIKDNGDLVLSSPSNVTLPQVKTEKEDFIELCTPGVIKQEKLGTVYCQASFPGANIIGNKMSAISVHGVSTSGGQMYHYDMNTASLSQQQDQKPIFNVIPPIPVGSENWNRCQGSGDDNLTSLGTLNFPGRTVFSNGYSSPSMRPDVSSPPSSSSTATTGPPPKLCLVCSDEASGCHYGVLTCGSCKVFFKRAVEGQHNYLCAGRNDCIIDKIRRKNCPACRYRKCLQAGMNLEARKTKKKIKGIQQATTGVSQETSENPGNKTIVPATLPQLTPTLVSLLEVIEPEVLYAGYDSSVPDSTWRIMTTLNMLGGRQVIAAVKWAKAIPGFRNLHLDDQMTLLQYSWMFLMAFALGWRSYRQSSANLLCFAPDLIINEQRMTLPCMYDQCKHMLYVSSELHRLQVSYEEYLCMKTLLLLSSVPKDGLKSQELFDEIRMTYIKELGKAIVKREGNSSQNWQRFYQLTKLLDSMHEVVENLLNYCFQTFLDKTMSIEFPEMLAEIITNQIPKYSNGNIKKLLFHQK

[6] = Pharmacokinetics, drug concentration in mouse serum/plasma by HPLC; settings: in vivo
Protocol: Mice were divided into groups of three for each time points. Two mice were not treated with drug and two other mice were treated with vehicle solution. Each group was treated with 10 mg per kilogram of body weight.
The drug was dissolved in a mixture 1:5:14 of DMSO:PEG400: H20. (Vehicle solution) and was administered into mice through the tail vein. The animals are warmed under a heat lamp for approximately 20 minutes prior to treatment to dilate their tail vein. […] After drug administration, the animals were euthanized via CO2 inhalation at different timepoints: 5 nm, 30 nm, 2 h, 6 h, 16 h. Animals were immediately bleed after exposure to CO2 via cardiac puncture (1 ml BD syringe+27 G ⅝ needle).
The samples for HPLC analysis were prepared according to the following procedure:
Blood cells were separated from serum by centrifugation.
To 400 μl of serum were added 80 μl of a 10 μM solution of an internal standard and 520 μl of acetonitrile. Precipitation occurred.
The mixture was vortexed for 3 minutes and then placed under ultrasound for 30 minutes.
The solid particles were filtered off or were separated by centrifugation.
The filtrate was dried under an argon flow to dryness.

[7] = target: T2, AR (Homo sapiens, UniProt P10275); assay type: cell-based; parameters: Fold induction, AR response reporter; settings: for rank by relative PSA level, most active to least active: 500 nM; for decrease in PSA level of LNCaP-AR cells (comparison): 1000 nM
T2 sequence (P10275 1-920): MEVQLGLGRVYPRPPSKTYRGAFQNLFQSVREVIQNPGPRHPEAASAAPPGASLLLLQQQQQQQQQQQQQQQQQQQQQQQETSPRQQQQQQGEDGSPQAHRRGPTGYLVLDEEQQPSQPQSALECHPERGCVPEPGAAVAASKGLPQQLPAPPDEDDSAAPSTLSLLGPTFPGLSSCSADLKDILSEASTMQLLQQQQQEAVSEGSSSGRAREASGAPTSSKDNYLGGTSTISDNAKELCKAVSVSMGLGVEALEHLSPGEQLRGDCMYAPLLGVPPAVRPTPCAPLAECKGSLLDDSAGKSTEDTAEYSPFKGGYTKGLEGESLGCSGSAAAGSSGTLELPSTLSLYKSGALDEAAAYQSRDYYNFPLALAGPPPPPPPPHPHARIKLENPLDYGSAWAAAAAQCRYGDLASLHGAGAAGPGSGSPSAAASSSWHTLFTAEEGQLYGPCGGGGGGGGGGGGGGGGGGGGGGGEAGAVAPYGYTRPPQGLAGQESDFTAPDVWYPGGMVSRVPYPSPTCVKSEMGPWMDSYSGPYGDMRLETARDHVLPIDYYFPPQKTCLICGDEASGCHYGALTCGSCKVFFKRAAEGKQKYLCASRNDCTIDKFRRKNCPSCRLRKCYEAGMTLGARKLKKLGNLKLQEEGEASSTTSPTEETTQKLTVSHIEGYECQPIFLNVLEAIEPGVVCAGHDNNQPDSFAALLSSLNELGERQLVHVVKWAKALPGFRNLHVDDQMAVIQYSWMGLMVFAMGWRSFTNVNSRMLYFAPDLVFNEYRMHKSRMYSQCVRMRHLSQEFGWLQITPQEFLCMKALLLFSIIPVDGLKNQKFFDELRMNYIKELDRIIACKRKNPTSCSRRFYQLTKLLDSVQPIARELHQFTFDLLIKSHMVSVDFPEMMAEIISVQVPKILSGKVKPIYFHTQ
Protocol: It is well established that PSA levels are indicators of AR activities in prostate cancer. […] The LNCaP-AR cells are a line of lymph node carcinoma of prostate cells transduced with a plasmid that makes express androgen receptors. […] After four days incubation, secreted PSA levels were assayed using PSA ELISA kits (American Qualex, San Clemente, Calif.)

[8] = target: T2, AR; assay type: cell-based; parameters: Fold induction, AR response reporter; settings: AR over expressed LNCaP, absence of R1881
[9] = target: T2, AR; assay type: cell-based; parameters: Fold induction, AR response reporter; settings: LN-AR, absence of R1881
Protocol: Activities of AR response reporter were measured.

[10] = tested on: AR; assay type: cell-based; settings: FIG. 24
Protocol: (§1) The compounds were subjected to tests using an artificial AR response reporter system in a hormone refractory prostate cancer cell line. […] After two days of incubation, reporter activities were assayed.

[11] = target: T2, AR; assay type: cell-based; parameters: Fold induction, AR response reporter; settings: for inhibitory activity on AR response reporter: hormone refractory LNCaP-AR
Protocol: as §1

[12] = LogP; assay type: physicochemical
[13] = Ranking of compounds in tiers for utility in treating prostate cancer
From the text: The placement of compounds into tiers was based on available data coupled with analytical judgment. Data considered included in vitro assays (AR response reporter system in LNCaP cell line, PSA level measurement, MTS mitochondrial assay) and in vivo experiments (tumor size measured directly or by emission induced by luciferase reporter gene, pharmacokinetic assays based on blood plasma levels). Not every compound was subjected to each assay. Not all data that was generated is shown. Judgment was applied in ranking compounds relative to each other for their utility in treating prostate cancer, in particular when ranking two compounds for which the same experiments were not performed.

[14] = tested on: LIAR cell line; experiment: Luciferase activity of the LIAR cell line (FIG. 25); assay type: cell-based; settings: 125 nmol to 1000 nmol
From the text: FIG. 25 is a graph of luciferase activity of the LIAR cell line dosed with various compounds administered at concentrations ranging from 125 nmol to 1000 nmol.
The inventors have determined that what might appear to be a small change in the structure of hydantoin compounds may result in a large change in that compound's performance in treating prostate cancer.

[15] = target: T3, androgen receptor (Homo sapiens, UniProt P10275, T878A); settings: 10 uM (R1881 1 nM), LNCaP
T3 sequence (P10275 1-920 T878A): T2 sequence (P10275 1-920) with T878A

## Cc1ccc(N2C(=S)N(c3ccc(C#N)c(C(F)(F)F)c3)C(=O)C2(C)C)cc1 [NC2, 4-[3-(4-methylphenyl)-4,4-dimethyl-5-oxo-2-thioxoimidazolidin-1-yl]-2-trifluoromethyl-benzonitrile]
[1]
  growth effect: no growth effect
[2]
  growth inhibitory effect: no growth inhibitory effect
[3]
  growth effect: no growth effect
[4]
  growth effect: no growth effect

## Cc1ccc(N2C(=S)N(c3ccc(C#N)c(C(F)(F)F)c3)C(=O)C23CCC3)cc1 [NC7, 4-(8-oxo-6-thioxo-5-(4-methylphenyl)-5,7-diazaspiro[3.4]oct-7-yl)-2-trifluoromethylbenzonitrile]
[5]
  effect on GR response reporter: no effect on GR
[1]
  growth effect: no growth effect
[2]
  growth inhibitory effect: no growth inhibitory effect
[6]
  pharmacokinetic behavior, residence time in blood: metabolize fast
[7]
  rank by relative PSA level, most active to least active: NC50>NC48>NC7>NC43>NC44>NC49>NC50>NC45>bicalutamide
  decrease in PSA level of LNCaP-AR cells (comparison): greater decrease in PSA level of LNCaP-AR cells than NC43, NC44, and NC50
[3]
  growth effect: no growth effect
[8]
  agonistic activity on secreted PSA: no agonistic activities
[4]
  growth effect: no growth effect
[9]
  agonistic activity on AR response reporter: no agonistic activity
[10]
  IC50 (comparison): much lower than the IC50 for bicalutamide

## CN1C(=O)N(c2ccc(C#N)c(C(F)(F)F)c2)C(=O)C12CCC2 [NC25, 4-(5-methyl-6,8-dioxo-5,7-diazaspiro[3.4]oct-7-yl)-2-trifluoromethylbenzonitrile, reference compound]
[11]
  inhibitory activity on AR response reporter: no inhibitory activities
[8]
  agonistic activity on secreted PSA: stimulated PSA expression
[9]
  agonistic activity on AR response reporter: strongly activated AR

## CN1C(=S)N(c2ccc(C#N)c(C(F)(F)F)c2)C(=O)C12CCCC2 [NC26, 4-(1-methyl-4-oxo-2-thioxo-1,3-diazaspiro[4.4]non-3-yl)-2-trifluoromethylbenzonitrile, reference compound]
[11]
  inhibitory activity on AR response reporter: no inhibitory activities
[8]
  agonistic activity on secreted PSA: stimulated PSA expression
[9]
  agonistic activity on AR response reporter: strongly activated AR

## CNC(=O)CCCc1ccc(N2C(=S)N(c3ccc(C#N)c(C(F)(F)F)c3)C(=O)C23CCC3)cc1 [NC48, 4-{4-[7-(4-Cyano-3-trifluoromethylphenyl)-8-oxo-6-thioxo-5,7-diaza-spiro[3.4]oct-5-yl]-phenyl}-N-methyl-butyramide]
[6]
  pharmacokinetic behavior, residence time in blood: metabolize fast
[7]
  rank by relative PSA level, most active to least active: NC50>NC48>NC7>NC43>NC44>NC49>NC50>NC45>bicalutamide
  decrease in PSA level of LNCaP-AR cells (comparison): greater decrease in PSA level of LNCaP-AR cells than NC43, NC44, and NC50
[7]; LN-AR cells, FIG. 23
  PSA levels: PSA levels decreased
[7]; LN/AR cell line, 125 nmol to 1000 nmol
  PSA level (comparison): less than the PSA level upon exposure to NC42 and NC46
[12]
  logP: 3.44
[13]
  activity remarks in the ranking: particularly advantageous
[10]
  IC50 (comparison): much lower than the IC50 for bicalutamide

## Cc1ccc(N2C(=S)N(c3ccc(C#N)c(I)c3)C(=O)C2(C)C)cc1 [NC63]
[13]
  activity remarks in the ranking: good activity

## CNC(=O)c1ccc(N2C(=S)N(c3ccc(C#N)c(C(F)(F)F)c3)C(=O)C23CCC3)cc1 [NC77]
[11]; 125 nM to 1000 nM, FIG. 3
  luciferase activity in LNCaP-AR cells: acted to reduce luciferase activity
[11]; 500 nM, FIG. 3
  rank by relative luciferase activity, most active to least active: NC67>NC68>NC66>NC69>NC77=NC53>bicalutamide
[14]
  luciferase activity (comparison): less than the luciferase activity upon exposure to NC98

## Cc1ccc(N2C(=S)N(c3ccc(C#N)c(Cl)c3)C(=O)C2(C)C)cc1 [NC107]
[13]
  activity remarks in the ranking: very poor activity

## C[C@]1(O)CC[C@H]2[C@@H]3CCC4=CC(=O)CCC4=C3C=C[C@@]21C [R1881, methyltrienolone, reference compound]
[7]
  induction of secreted PSA level: strongly induced
[15]
  androgen receptor nuclear translocation: nuclear translocation of the androgen receptor occurred
